Results from patent US20260242440A1, “NOVEL MEANS TO MODULATE NMDA RECEPTOR-MEDIATED TOXICITY” (FUNDAMENTAL PHARMA GMBH, priority 2018, published 2026).

Experiments:
[1] = biological target: T1, NMDA receptor/TRPM4 complex (Mus musculus, UniProt Q7TN37); experiment: co-immunoprecipitation of NMDA receptor/TRPM4 complex from mouse cortical lysates after i.p. injection; format: in vivo
T1 construct: cortical lysates were obtained from control mice and from mice 2 h, 6 h and 24 h following intraperitoneal injection; from tissue; host or cells: mouse cortex (lysate after i.p. injection of compound P4)
T1 sequence (Q7TN37 whole entry, one chain of several): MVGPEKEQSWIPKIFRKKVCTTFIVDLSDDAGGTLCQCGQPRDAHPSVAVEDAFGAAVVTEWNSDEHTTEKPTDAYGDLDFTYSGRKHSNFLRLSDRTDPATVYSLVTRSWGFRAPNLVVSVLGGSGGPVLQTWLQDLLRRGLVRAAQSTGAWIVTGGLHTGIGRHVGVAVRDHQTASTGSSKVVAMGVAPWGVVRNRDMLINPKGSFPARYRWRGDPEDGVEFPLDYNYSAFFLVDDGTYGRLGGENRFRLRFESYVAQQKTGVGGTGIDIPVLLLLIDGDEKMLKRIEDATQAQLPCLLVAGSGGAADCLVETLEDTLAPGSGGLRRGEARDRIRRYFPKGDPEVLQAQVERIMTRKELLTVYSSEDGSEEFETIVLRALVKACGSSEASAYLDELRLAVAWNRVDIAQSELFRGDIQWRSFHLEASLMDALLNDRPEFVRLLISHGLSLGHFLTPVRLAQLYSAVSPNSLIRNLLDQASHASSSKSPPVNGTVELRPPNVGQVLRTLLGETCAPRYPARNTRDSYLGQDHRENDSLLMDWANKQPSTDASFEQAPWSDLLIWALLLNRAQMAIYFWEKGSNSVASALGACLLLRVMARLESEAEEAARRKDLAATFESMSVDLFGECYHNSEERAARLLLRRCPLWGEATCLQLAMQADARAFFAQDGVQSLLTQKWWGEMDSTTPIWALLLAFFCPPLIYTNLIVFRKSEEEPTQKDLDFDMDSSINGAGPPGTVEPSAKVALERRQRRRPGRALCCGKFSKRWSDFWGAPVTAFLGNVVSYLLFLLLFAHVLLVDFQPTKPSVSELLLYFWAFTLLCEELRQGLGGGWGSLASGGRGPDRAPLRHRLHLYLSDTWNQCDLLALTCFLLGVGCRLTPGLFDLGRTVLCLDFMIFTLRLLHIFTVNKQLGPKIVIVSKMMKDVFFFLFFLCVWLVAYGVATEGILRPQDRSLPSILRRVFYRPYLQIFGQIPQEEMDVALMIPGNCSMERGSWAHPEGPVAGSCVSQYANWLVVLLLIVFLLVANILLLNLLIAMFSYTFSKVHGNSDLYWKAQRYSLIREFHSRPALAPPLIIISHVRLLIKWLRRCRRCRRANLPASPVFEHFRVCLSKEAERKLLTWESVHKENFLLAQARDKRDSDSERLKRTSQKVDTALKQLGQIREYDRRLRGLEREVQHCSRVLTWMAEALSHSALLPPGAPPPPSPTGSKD
Description: In a further experiment it was assessed whether compound P4 has any impact on NMDA receptor/TRPM4 complex formation. For this purpose, co-immunoprecipitation experiments using brain lysates from the mouse cortex where carried out. Briefly, cortical lysates were obtained from control mice and from mice 2 h, 6 h and 24 h following intraperitoneal injection of compound P4 (40 mg/kg) in immunoprecipitation buffer (10 mM Tris, pH 8.0, 150 mM NaCl, 1 mM EDTA, 1% NP-40, 10% glycerol with Protease Inhibitor Cocktail, Roche) for 60 min. The lysate was then centrifuged for 12 min at 1200 g to remove cell debris and nuclei. The mixture of supernatant was incubated with anti-TRPM4 antibodies overnight. Pierce™ Protein A Magnetic Beads were added to the mixture and mixed another 12 h, followed by 3 washes with immunoprecipitation buffer. The precipitates were subsequently boiled in protein loading buffer and separated in 7.5% SDS-PAGE.

[2] = tested on: primary mouse hippocampal neurons; experiment: NMDA induced cell death (excitotoxicity) in cultured primary neurons; format: cell-based; settings: polypeptide expressed via rAAV infection on DIV3; NMDA 20 μM for 10 min; cell death assessed 24 h later

Row | Compound | reduction in NMDA receptor/TRPM4 complex formation ([1]; 2 h after single i.p. injection of 40 mg/kg) [%] | reduction in NMDA receptor/TRPM4 complex formation ([1]; 6 h after single i.p. injection of 40 mg/kg) [%] | NMDA receptor/TRPM4 complex formation ([1]; 24 h after i.p. injection of 40 mg/kg) | protection against NMDA induced cell death (neuroprotective effect) [2]
1 | CCN(CCN)Cc1cccc(Br)c1 [P4] | 51 | 61 | had reformed | 
2 | SEQ ID NO:5: polypeptide, amino acid residues 633-689 of mouse TRPM4 (NSEERAARLLLRRCPLWGEATCLQLAMQADARAFFAQDGVQSLLTQKWWGEMDSTTP; listed as Mus musculus) |  |  |  | neuroprotective
